Results on 5 compounds are retold here after PMC3272584 (Bioorganic & medicinal chemistry, 2011).

This data set has as its system rat neonatal microglia. Nature of the data set: Short-term microglia cell viability: LDH release. To be noted: short-term cell viability (90 min). A general note: LDH leaks from cells whose membrane has failed.

Some results are limits rather than exact numbers.

As for `[C-]#[N+][C@@]1(C)CC[C@H]2[C@H]3[C@@H](C(=C)CC[C@H]31)[C@H](CC(=C)C)C[C@@H]2C` [Compound 1, 7-isocyano-11(20)-15(16)-amphilectadiene], the “LDH50 (concentration that caused 50% release of the total LDH content of microglia cells)” value was more than 10 µM.
As to `[C-]#[N+]C(C)(C)C[C@@H]1C[C@H](C)[C@H]2CC[C@H](C)[C@@]3([N+]#[C-])CCC(=O)[C@@H]1[C@H]23` [Compound 6, 8,15-diisocyano-11-amphilectone], the “LDH50 (concentration that caused 50% release of the total LDH content of microglia cells)” value was more than 10 µM.
Take `[C-]#[N+]C(C)(C)C[C@@H]1C[C@H](C)[C@H]2CC[C@H](C)[C@@]3([N+]#[C-])CCC(=C)[C@@H]1[C@H]23` [Compound 2, (–)-8,15-diisocyano-11(20)-amphilectene]: the “LDH50 (concentration that caused 50% release of the total LDH content of microglia cells)” value was more than 10 µM.
Consider `[C-]#[N+][C@@]12CCC(=C)[C@H]3[C@H](CC(C)(C)NC=O)C[C@H](C)[C@@H](CC[C@@H]1C)[C@@H]32` [Compound 4, 8-isocyano-11(20)-ene-15-amphilectaformamide], for which the “LDH50 (concentration that caused 50% release of the total LDH content of microglia cells)” value is more than 10 µM.
The figure for `[C-]#[N+][C@@]12CCC(=C)[C@H]3[C@H](CC(C)(C)NC(=O)CN4CCC4=O)C[C@H](C)[C@@H](CC[C@@H]1C)[C@@H]32` [Compound 5, monamphilectine A] is more than 10 µM.
